Measurements published in ChEMBL document CHEMBL1201862, “PubChem BioAssay data set” (2004).
Calls of active or inactive are those of the source.

Key:
HeLa = assay: viability loss in HeLa cells – cell-based, 24 h, cherry-picked samples, cytotoxicity control, dose response (AID 504726); type: functional; conditions: Homo sapiens;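 also: potency for cytotoxicity as loss of luminescence signal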
[1] = target: Dual specificity tyrosine-phosphorylation-regulated kinase 1A (Rattus norvegicus, UniProt Q63470); type: biochemical, Homo sapiens
[2] = target: T1, Delta-type opioid receptor (Homo sapiens, UniProt P41143); assay: HTS Image-Based Screen for Antagonists of the DOR Receptor. [Related pubchem assays (depositor defined):AID1777, AID1785, AID1786, AID2133]; type: functional
Mu-type opioid receptor = Mu-type opioid receptor (Homo sapiens, UniProt P35372); assay: HTS Image-Based Screen for Agonists of the MOR Receptor. [Related pubchem assays (depositor defined):AID1777, AID1785, AID1786, AID2133]; type: functional;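 also: imaging of beta-arrestin GFP recruitment into spots after receptor activation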
[3] = target: T1, Delta-type opioid receptor; assay: HTS Image-Based Screen for Agonists of the DOR Receptor. [Related pubchem assays (depositor defined):AID1777, AID1786, AID2133]; type: functional
[4] = viability of PTEN-deleted HCT116 cells – cell-based, HCT116 PTEN knockout, dose response (AID 1047); type: functional;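 also: HCT116 colon tumor cells with PTEN knocked out; cells exposed to compound for 60 hours before readout; potency for loss of cell viability measured by luminescence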
[5] = target: T2, Kappa-type opioid receptor (Homo sapiens, UniProt P41145); type: functional
Beta-galactosidase = Beta-galactosidase (Escherichia coli, UniProt Q8VNN2); type: functional
[6] = viability of HCT116 lacking mutant beta-catenin – cell-based, human colon tumor, dose response (AID 1045); type: functional;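 also: HCT116 colon tumor cells with beta catenin knocked out; cells exposed to compound for 60 hours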
[7] = target: T2, Kappa-type opioid receptor; type: functional; remark: listed apart in the source
[8] = target: T3, Microphthalmia-associated transcription factor (Homo sapiens, UniProt O75030); assay: reducers of TRPM1 reporter luminescence, concentration series – cell-based, SK-MEL-5, cherry-picked, set 3, MITF inhibitor project, dose response (AID 493073); type: functional;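 also: SK-MEL-5 melanoma cells with luciferase driven by the MITF target TRPM1 promoter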
T3 sequence (O75030 whole entry): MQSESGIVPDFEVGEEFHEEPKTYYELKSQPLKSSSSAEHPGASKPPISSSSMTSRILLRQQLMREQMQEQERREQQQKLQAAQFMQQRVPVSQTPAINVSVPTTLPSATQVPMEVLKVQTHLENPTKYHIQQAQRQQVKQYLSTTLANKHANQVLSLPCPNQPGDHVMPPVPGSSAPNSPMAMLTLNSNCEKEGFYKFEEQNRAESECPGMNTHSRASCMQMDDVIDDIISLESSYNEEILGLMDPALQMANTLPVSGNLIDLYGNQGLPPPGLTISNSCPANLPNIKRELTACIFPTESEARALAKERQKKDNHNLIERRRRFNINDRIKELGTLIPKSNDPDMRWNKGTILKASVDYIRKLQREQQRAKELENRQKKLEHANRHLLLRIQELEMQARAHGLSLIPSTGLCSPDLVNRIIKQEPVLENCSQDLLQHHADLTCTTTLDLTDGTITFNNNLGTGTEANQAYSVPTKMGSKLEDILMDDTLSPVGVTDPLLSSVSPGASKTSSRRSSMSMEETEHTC

Vero = assay: viability of Vero cells under compound – cytotoxicity control for flavivirus capping enzyme inhibitors (AID 588742); type: functional; conditions: Chlorocebus sabaeus
[9] = reduction of Shn3 3'UTR-driven luciferase in osteoblasts – cell-based, Clone20 osteoblasts, firefly luciferase, cherry-picked, dose response (AID 624132); type: functional;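 also: firefly luciferase luminescence from reporter carrying the Shn3 3'UTR in osteoblasts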
[10] = loss of viability in HepG2 cells – cell-based, CellTiter-Glo, cherry-picked, cytotoxicity control for Shn3 inhibitor project, dose response (AID 624134); type: functional
[11] = non-specific 3'UTR reporter inhibition in Clone20-Shn3RL – cell-based, Renilla luciferase, cherry-picked, counter-screen for Shn3 inhibitor project, dose response (AID 624133); type: functional
Fatty acid synthase [12] = target: T4, Fatty acid synthase (Homo sapiens, UniProt P49327); assay: inhibition of human FAS-TE enzyme activity – biochemical, endpoint fluorescence intensity, uHTS hits, dose response (AID 624327); type: functional;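 also: fluorescence from hydrolysis of an O-methyl fluorescein acyl ester substrate by the enzyme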
Fatty acid synthase [13] = target: T4, Fatty acid synthase; assay: inhibition of human FAS-TE enzyme activity – biochemical, kinetic fluorescence intensity, dose response (AID 624326); type: functional;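 also: rate of fluorescence rise from hydrolysis of a fluorogenic O-methyl fluorescein ester substrate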
[14] = viability loss in THP-1 monocytes – THP-1 cells, cytotoxicity control for Vif-APOBEC3G degradation inhibitor project, dose response (AID 1117359); type: functional; conditions: THP-1
[15] = target: Peroxisome proliferator-activated receptor gamma/Nuclear receptor coactivator 2 (Homo sapiens, UniProt P37231); type: functional;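 also: agonist potency for raising coactivator recruitment to the receptor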
[16] = target: Peroxisome proliferator-activated receptor gamma/Nuclear receptor coactivator 1 (Homo sapiens, UniProt P37231); type: functional;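 also: agonist potency as compounds enhance coactivator SRC-1 recruitment to PPARgamma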
[17] = target: Peroxisome proliferator-activated receptor gamma/Nuclear receptor coactivator 3 (Homo sapiens, UniProt P37231); type: functional;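 also: agonist potency for raising coactivator recruitment to the receptor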
Caspase-6 = target: T5, Caspase-6 (Homo sapiens, UniProt P55212); assay: inhibition of CASP6 peptide cleavage – biochemical, VEID-R110 fluorescence, cherry-pick, dose response (AID 720632)
T5 sequence (P55212 whole entry): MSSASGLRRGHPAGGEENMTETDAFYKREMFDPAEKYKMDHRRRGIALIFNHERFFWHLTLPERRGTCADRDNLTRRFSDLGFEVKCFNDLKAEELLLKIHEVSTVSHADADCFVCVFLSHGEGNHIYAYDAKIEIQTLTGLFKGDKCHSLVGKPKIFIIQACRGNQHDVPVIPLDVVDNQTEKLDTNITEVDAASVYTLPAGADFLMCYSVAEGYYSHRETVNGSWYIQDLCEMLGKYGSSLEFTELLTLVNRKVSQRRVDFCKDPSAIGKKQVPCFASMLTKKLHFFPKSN

[18] = NIH-3T3 fibroblast cytotoxicity, dose response, cytotoxicity control, cell-based, fluorescence, Alamar Blue, secondary assay (AID 2327); type: functional;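 also: NIH-3T3 mouse fibroblasts cultured with fluconazole at 8 µg/mL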
[19] = fluconazole-exposed Candida albicans growth modulators – fluorescence, retest, confirmation (AID 2467); type: functional, cell-based
[20] = target: T6, Serine/threonine-protein phosphatase (Candida dubliniensis (strain CD36 / CBS 7987 / NCPF 3949 / NRRLY-17841) (Yeast), UniProt B9W6M3); assay: blockers of CaCl2-induced CDRE-lacZ signaling – S. cerevisiae, luminescence, secondary, dose response (AID 2388); type: functional, cell-based;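 also: yeast reporter cells carrying a calcineurin-responsive lacZ construct stimulated with calcium chloride; luminescent beta-galactosidase reporter signal in whole cells rather than isolated phosphatase activity; potency for inhibition where a drop in reporter signal means calcineurin blockade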
T6 sequence (B9W6M3 whole entry): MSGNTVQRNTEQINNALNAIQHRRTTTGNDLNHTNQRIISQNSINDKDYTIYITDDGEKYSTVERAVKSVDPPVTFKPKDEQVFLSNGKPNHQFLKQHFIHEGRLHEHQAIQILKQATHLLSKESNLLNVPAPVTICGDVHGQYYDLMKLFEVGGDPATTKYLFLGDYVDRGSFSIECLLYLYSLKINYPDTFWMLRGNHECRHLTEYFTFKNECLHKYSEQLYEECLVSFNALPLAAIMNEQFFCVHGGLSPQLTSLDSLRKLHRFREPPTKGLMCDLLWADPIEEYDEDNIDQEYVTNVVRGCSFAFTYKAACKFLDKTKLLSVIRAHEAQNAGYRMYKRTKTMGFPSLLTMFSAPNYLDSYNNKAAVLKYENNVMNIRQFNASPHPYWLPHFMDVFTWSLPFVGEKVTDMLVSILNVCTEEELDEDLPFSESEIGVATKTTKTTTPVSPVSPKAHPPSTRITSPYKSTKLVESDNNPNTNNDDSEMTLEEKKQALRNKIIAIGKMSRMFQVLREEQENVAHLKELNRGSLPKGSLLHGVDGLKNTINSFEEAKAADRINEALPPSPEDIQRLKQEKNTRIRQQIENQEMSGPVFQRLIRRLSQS

[21] = target: ATP-dependent molecular chaperone HSP82 (Candida albicans (strain WO-1) (Yeast), UniProt C4YTQ8); assay: steroid-induced GRE reporter decrease in yeast – S. cerevisiae, luminescence, Hsp90 inhibitor project, dose response (AID 2400); type: functional, cell-based;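 also: beta-galactosidase luminescence from glucocorticoid response element reporter as proxy for Hsp90 function; inhibitor potency where signal loss means Hsp90 inhibition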
[22] = Trypanosoma cruzi growth suppression in host cells – NIH3T3 host cells, beta-gal luminescence, confirmation (AID 2044); type: functional, cell-based;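 also: intracellular parasites grown in NIH/3T3 mouse fibroblasts as host cells; luminescent beta-galactosidase reporter signal from transgenic T. cruzi replicating inside host cells; inhibitors lower the luminescence signal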
[23] = NIH3T3 cell viability loss – ATP luminescence, mouse fibroblasts, counter-screen, dose response (AID 2010); type: functional, cell-based;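 also: cells exposed to compound for about 90 hours before reading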
[24] = THP-1 cell cytotoxicity, dose response, cytotoxicity control for non-replicating M. tuberculosis project (AID 489025); type: functional
cells = type: functional

T4 sequence (P49327 whole entry): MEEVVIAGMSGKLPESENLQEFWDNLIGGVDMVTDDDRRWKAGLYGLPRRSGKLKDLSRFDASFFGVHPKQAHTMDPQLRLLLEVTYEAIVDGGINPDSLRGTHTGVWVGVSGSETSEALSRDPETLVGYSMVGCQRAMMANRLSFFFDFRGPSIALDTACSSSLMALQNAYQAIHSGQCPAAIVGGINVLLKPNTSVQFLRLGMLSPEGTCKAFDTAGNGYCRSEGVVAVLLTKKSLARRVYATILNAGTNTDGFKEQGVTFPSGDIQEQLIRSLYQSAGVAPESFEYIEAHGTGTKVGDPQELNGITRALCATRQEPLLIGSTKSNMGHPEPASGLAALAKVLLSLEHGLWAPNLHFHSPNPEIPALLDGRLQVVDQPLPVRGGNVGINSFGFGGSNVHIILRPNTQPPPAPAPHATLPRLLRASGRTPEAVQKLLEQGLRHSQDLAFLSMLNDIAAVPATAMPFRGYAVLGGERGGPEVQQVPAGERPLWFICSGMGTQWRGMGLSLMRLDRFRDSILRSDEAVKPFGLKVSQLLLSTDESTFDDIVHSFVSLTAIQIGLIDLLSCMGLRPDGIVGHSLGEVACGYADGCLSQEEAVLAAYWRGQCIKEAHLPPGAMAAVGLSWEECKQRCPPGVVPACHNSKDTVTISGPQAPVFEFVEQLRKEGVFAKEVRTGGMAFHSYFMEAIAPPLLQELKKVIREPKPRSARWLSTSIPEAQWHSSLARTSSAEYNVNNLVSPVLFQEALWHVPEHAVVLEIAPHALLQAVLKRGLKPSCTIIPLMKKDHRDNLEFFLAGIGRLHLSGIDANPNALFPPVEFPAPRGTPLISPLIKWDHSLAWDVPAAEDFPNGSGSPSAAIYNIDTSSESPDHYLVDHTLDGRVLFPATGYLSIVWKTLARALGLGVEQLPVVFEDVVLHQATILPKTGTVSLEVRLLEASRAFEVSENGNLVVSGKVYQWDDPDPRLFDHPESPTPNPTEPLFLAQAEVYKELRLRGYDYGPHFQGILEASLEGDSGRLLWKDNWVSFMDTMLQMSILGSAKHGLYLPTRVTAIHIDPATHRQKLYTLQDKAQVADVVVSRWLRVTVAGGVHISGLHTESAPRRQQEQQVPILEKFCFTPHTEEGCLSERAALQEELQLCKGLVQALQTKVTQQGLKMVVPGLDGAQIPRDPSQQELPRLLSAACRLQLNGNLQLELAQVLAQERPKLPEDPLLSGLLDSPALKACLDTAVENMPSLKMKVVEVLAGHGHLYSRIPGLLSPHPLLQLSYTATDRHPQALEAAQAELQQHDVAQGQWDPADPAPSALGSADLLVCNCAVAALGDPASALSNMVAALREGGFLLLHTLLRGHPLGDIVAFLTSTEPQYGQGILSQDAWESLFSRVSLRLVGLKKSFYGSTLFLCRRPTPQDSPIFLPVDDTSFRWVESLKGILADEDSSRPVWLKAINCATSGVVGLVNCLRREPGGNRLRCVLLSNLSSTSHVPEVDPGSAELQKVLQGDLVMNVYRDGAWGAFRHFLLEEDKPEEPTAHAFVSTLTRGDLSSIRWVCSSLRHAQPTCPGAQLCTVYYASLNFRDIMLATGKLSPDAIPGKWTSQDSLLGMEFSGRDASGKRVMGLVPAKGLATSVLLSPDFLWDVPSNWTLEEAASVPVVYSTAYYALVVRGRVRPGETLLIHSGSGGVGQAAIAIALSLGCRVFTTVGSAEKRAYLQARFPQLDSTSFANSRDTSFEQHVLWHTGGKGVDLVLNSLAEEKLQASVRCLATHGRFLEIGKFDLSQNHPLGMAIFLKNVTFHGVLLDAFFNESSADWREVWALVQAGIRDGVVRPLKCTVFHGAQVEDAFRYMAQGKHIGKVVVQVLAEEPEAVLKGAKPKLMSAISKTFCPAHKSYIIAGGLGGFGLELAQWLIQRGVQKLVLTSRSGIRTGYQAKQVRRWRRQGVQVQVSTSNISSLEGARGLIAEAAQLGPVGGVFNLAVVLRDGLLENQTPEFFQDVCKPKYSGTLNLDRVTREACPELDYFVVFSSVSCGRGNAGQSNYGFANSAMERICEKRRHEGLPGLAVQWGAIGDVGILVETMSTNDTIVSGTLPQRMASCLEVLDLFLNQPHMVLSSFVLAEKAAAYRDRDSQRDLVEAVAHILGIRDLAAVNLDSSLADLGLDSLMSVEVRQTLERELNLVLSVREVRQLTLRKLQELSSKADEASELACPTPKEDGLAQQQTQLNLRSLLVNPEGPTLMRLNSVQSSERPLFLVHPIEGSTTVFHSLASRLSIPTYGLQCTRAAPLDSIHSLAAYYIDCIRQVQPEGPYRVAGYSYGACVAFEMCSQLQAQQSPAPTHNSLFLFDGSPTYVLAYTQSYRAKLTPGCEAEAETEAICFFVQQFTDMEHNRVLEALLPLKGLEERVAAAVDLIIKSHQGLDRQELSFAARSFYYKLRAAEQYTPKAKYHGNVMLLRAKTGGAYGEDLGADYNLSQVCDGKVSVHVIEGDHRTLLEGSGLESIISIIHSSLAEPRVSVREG
T2 sequence (P41145 whole entry): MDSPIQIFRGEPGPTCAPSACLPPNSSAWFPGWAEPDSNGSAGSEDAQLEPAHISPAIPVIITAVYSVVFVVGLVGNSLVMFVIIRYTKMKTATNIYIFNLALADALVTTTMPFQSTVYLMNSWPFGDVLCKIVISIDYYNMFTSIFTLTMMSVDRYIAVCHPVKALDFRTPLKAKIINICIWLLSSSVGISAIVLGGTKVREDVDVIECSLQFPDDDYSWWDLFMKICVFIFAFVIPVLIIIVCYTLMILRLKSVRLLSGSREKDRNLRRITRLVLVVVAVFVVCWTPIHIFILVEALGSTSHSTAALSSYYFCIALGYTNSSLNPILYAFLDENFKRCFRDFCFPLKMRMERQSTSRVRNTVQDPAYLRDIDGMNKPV
Sequence of ATP-dependent molecular chaperone HSP82 (C4YTQ8 whole entry): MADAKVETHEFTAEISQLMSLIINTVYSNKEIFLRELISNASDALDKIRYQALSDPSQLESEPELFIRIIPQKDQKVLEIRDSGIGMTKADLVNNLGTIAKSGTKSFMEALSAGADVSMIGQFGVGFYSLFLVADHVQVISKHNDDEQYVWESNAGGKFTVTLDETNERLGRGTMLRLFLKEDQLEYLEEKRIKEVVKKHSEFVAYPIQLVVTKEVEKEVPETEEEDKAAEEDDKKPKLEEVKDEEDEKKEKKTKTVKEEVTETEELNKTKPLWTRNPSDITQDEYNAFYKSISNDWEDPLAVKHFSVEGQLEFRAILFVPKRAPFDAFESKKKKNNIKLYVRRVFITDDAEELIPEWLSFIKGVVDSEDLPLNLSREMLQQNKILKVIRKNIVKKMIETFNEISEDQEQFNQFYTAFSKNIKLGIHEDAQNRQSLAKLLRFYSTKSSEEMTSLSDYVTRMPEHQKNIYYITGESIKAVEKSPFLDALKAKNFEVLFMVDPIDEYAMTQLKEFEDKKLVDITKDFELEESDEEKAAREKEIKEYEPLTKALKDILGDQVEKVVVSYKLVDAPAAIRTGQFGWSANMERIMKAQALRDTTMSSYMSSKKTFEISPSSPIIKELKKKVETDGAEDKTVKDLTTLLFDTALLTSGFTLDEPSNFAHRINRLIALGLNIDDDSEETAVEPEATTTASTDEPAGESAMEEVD
T1 sequence (P41143 whole entry): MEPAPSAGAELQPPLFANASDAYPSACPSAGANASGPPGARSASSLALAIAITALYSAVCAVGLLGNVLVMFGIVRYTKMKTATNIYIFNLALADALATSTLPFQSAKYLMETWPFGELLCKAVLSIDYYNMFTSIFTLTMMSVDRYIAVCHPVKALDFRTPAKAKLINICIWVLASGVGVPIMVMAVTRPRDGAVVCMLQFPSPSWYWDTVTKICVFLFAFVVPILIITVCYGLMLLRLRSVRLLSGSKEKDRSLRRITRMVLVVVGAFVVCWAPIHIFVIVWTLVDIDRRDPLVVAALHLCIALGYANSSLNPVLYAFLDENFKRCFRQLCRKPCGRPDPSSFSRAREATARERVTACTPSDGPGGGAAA
Sequence of Mu-type opioid receptor (P35372 whole entry): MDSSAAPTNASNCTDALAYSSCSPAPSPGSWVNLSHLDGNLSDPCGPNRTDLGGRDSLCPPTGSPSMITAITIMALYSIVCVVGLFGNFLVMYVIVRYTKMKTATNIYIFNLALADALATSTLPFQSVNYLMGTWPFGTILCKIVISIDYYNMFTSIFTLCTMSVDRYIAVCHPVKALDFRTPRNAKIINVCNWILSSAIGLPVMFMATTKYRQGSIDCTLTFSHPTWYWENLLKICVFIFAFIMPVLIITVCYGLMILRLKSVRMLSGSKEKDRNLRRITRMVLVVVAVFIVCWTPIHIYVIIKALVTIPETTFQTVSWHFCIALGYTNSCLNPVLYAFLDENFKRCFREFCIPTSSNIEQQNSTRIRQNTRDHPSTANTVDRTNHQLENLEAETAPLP

O=C1c2ccccc2C(=O)C1c1ccccn1
active: AC50 (HeLa) 139 µM | AC50 [1] 9.62 µM

CCC(=O)OCCNc1cc(Sc2nc3ccccc3[nH]2)c2nonc2c1[N+](=O)[O-]
active: EC50 [4] 6.88 µM | IC50 [5] 2.56 µM | EC50 [6] 5.01 µM | AC50 [8] 9.14 µM | CC50 (Vero) 19 µM | AC50 [9] 1.09 µM | AC50 [10] 27.4 µM | AC50 [11] 8.68 µM | IC50 (Fatty acid synthase [12]) 2.04 µM | IC50 (Fatty acid synthase [13]) 0.845 µM | CC50 [14] 14.7 µM
inactive: IC50 [2] > 32 µM | EC50 (Mu-type opioid receptor) > 32 µM | EC50 [3] > 32 µM | EC50 (Beta-galactosidase) > 31.5 µM
19.1 µM: IC50 [7]

Oc1ccc(NCc2cccc(OCc3ccc(F)cc3)c2)cc1
> 79.4 µM (not active): EC50 [15] | EC50 [16] | EC50 [17]
active: CC50 (Vero) > 40 µM | AC50 (Caspase-6) 6.29 µM | CC50 [14] > 40 µM

O=C(NCc1ccc(F)cc1)C(c1ccccc1)N(CC1CCCO1)C(=O)Cn1nnc2ccccc21 (configuration not stated)
inactive: EC50 [18] > 150 µM | EC50 [20] > 180 µM | EC50 [21] > 150 µM
active: EC50 [19] 1.07 µM

COc1ccccc1OCC(=O)N/N=C/C=C/c1ccc([N+](=O)[O-])o1
inactive: EC50 [20] > 180 µM | EC50 [21] > 160 µM
active: EC50 [18] 51.2 µM | EC50 [19] 0.654 µM | EC50 [22] 0.105 µM | EC50 [23] 14.2 µM | CC50 [24] 23 µM | AC50 [8] 7.39 µM | IC50 (cells) 2.27 µM
